Reference: publication PMC9666555, “Genuine selective caspase-2 inhibition with new irreversible small peptidomimetics” (Cell Death & Disease, 2022)
Non-standard residues stand in square brackets, D forms with d. Residues, ends and D or L forms follow the SMILES beside them. ξ: configuration not given here. *: point of attachment. ξTHIQ1CO(6-Me) = Cc1ccc2c(c1)CCNC2C(=O)O; X1 = O=C(O)CC(N*)C(=O)COc1c(F)cccc1F; Quinaldoyl = O=C(c1ccc2ccccc2n1)*

Experiments:
[1] = target: T1, Kallikrein-1 (Homo sapiens, UniProt P06870); experiment: Non-caspase enzyme assay, Kallikrein-1; type: biochemical; details: concentrations up to 10 µM
T1 construct: purchased R&D Systems 2337-SE-010
T1 sequence (P06870 25-262): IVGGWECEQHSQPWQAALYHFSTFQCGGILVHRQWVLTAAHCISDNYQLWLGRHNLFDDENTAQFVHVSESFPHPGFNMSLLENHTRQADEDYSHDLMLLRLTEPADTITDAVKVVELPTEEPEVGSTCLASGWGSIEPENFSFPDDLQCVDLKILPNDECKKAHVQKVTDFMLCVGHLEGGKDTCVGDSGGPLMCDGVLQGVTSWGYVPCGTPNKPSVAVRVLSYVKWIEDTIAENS
Experimental: (§1) Stock solutions were stored at −80 °C. […]
(§2) Non-caspase enzyme assays
(§3) The human pro- kallikrein-1 (pro-hK1) was activated in a buffer containing: Tris-HCl 50 mM, CaCl2 10 mM, NaCl 150 mM, Brij-35 0,05% pH 7,5. Human pro-kallikrein-6 and -8 (pro-hK6 and 8 were activated using Lysyl-endopeptidase (Wako- BioProducts®) at a 1/500 weight ratio, in a buffer containing 50 mM Tris and 0,05% Brij-35 (pH 8). Kinetics using non-caspase enzymes for selectivity studies were done according to the following conditions.
(§4) Enzymes Substrates Buffers
(§5) Cathepsine B (0.2 nM) z-RR-AMC 20 µM Acétate de sodium 0,1 M; EDTA 1mM ; […]
(§6) Cathepsine L (1.2 nM) RLR-AMC 25 µM Acétate de sodium 0,1 M; EDTA 1mM ; […]
(§7) Cathepsine D (0.1 nM) Mca-Gly-Ly s-Pro-Ile-Leu-Phe-Phe- Citrate de Sodium 0,1 M; EDTA 2 mM ; Arg-Leu-Lys(Dnp)-D-Arg-NH2 10 µM Brij-35 0,01%; pH 4 hK1 (4 nM) Boc-VPR-AMC 100µM Tris 50mM; Citrate 1M; Brij-35 0.05%; pH7 hK6 (2 nM ) Boc-QAR -AMC 100 µM Tris 50mM; Citrate 1M; Brij-35 0.05%; pH7 hK8 (1 nM) Boc-VPR-AMC 100µM Tris 50mM; Citrate 1M; Brij-35 0.05%; pH7
(§8) Thrombine (10 mU/mL) Boc-VPR-AMC 100µM Tris 50mM; Citrate 1M; Brij-35 0.05%; pH7 Plasmine (4 nM ) Boc-QAR -AMC 100µM Tris 50mM; Citrate 1M; Brij-35 0.05%; pH7 Trypsine (0.1 nM) Boc-QAR -AMC 100µM Tris 50mM; Citrate 1M; Brij-35 0.05%; pH7

[2] = system: Swiss mice hippocampal neurons; experiment: Aβ oligomer-induced dendritic spine loss in hippocampal primary cultures; type: cell-based, mouse; details: 100 nM Aβ1-42 oligomers 6 h
Experimental: For the monoculture model (MBBT4 devices), 20 × 10^3 hippocampal neurons were seeded in each chamber. For the compartmentalized coculture model (neuronal diode in MBBT5 devices), 40 × 10^3 cortical cells and 15 × 10^3 hippocampal cells were seeded in each input chamber and output chamber, respectively. The culture medium was renewed every 5 days. Microfluidic chips were placed in Petri dishes containing 0.1% EDTA (Sigma) and incubated at 37 °C in a 5% CO2 atmosphere. In the neuronal diodes, cortical axons entered the microchannels and reached the hippocampi chamber in around 4–5 days. In both the monoculture and coculture systems, cells were cultured for 3 weeks to allow high dendrites and synapse density and intense electrical firing.
Cells were treated with caspase inhibitors and/or Aβ1–42 at 20 days in vitro. For the hippocampal monocultures, the culture medium was removed and replaced by fresh medium optionally containing 10 nM Aβ1–42 oligomers or monomers, with or without caspase inhibitors. After 6 h, cells were fixed, permeabilized, and subjected to immunolabelling. For cortico-hippocampal compartmentalized cocultures, the medium of the input chamber (cortical) was replaced by fresh medium optionally containing 100 nM Aβ1–42 oligomers or monomers, whereas the medium of the output (hippocampal) chamber was replaced by fresh medium optionally containing, or not, caspases inhibitors. […]
Immunostaining was performed directly in microfluidic chambers as described [38]. […] Images were analyzed using ImageJ software (NIH, Bethesda, MD, USA).
Synaptic disconnection was assessed as described [39] with slight modifications. Briefly, in hippocampal monocultures, synaptic disconnection was assessed through fluorescence microscopy by counting phalloidin clusters affixed to MAP2 and Bassoon. In cortico-hippocampal compartmentalized cocultures, synaptic disconnection was assessed by counting α-Synuclein presynaptic clusters affixed to MAP2-positive hippocampal dendrites. […] The images were similarly processed with ImageJ software before being used for quantification: the brightness/contrast of all control images were optimized manually to eliminate the background and to maximize the signal. The means of the minimum and maximum intensities were then calculated in the control condition and these settings were applied to all images. The brightness/contrast of all images was optimized manually to eliminate the background and maximize the intensity of the signal. α-synuclein/ MAP2 and Phalloidin/MAP2/Bassoon merges were then used for quantification. The number of spines was determined by counting individual clusters along ten dendritic regions (100 µm length each) in three independent experiments for every epitope. Only synapses detected on or near the neurites were included for analysis.

[3] = target: T2, Kallikrein-6 (Homo sapiens, UniProt Q92876); experiment: Non-caspase enzyme assay, Kallikrein-6; type: biochemical; details: concentrations up to 10 µM
T2 construct: purchased R&D Systems 5164-SE-010
Experimental: as §1, §2, §3, §4, §5, §6, §7, §8

[4] = system: Trypsin; experiment: Non-caspase enzyme assay, Trypsin; type: biochemical, human; details: concentrations up to 10 µM
Experimental: as §1, §2, §3, §4, §5, §6, §7, §8

[5] = target: T3, human active recombinant caspase-2 (Homo sapiens, UniProt P42575); experiment: In vitro caspase activity and inhibition assay (IC50), Caspase-2; type: biochemical
T3 sequence (P42575 170-325 limits assumed): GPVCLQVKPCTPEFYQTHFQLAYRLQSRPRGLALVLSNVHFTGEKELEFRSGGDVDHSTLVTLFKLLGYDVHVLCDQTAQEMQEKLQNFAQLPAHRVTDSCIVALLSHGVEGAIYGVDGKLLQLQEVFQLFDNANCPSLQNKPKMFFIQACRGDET
T3 sequence (P42575 348-452 limits assumed): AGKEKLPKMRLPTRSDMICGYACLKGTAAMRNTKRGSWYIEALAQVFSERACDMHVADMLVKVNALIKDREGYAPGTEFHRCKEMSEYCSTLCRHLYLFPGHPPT
Experimental: Stock solutions were stored at −80 °C.

| Structure (SMILES) | effect on Kallikrein-1 [1] | prevention of dendritic spine loss induced by oligomeric Aβ ([2]; pretreatment at 0.1 µM) [%] | prevention of dendritic spine loss induced by oligomeric Aβ ([2]; pretreatment at 1 µM) [%] | prevention of dendritic spine loss induced by oligomeric Aβ ([2]; pretreatment at 10 µM) [%] | effect on Kallikrein-6 [3] | effect on Trypsin [4] | IC50 [5] [nM] |
| --- | --- | --- | --- | --- | --- | --- | --- |
| CC(C)[C@H](NC(=O)c1ccc2ccccc2n1)C(=O)N[C@@H](CC(=O)O)C(=O)N[C@H](C(=O)N1CC[C@H](CC(C)(C)C)[C@@H]1C(=O)NC(CC(=O)O)C(=O)COc1c(F)cccc1F)C(C)C (stereo partly shown) [LJ3a] | very limited or no effect | 59.63 | 89.29 | 97.5 | very limited or no effect | very limited or no effect |  |
| Cc1ccc2c(c1)CCN(C(=O)[C@@H](NC(=O)[C@H](CC(=O)O)NC(=O)[C@@H](NC(=O)c1ccc3ccccc3n1)C(C)C)C(C)C)C2C(=O)NC(CC(=O)O)C(=O)COc1c(F)cccc1F (stereo partly drawn) [LJ2, Quinolin-2-carbonyl-VDV-(methyl-isoquinolyl)-D-CH2-O(2,6F2)Ph] (Quinaldoyl-VDV[ξTHIQ1CO(6-Me)]-X1) |  |  |  |  |  |  | 0.37 ± 0.01 |
